Measurements as given in article PMC6391964, “Radical‐Mediated Thiol‐Ene Strategy: Photoactivation of Thiol‐Containing Drugs in Cancer Cells” (Angewandte Chemie (International Ed. in English), 2018).
Read-outs that look alike come from different tables or passages of the source.

Experiments:
[1] = test system: HCT-116 colon carcinoma cells; type: cell-based, human
Description: (§1) T a bl e S4. The parallel artific ial membrane permeability assay (PAM PA). […]
(§2) […] The cel l s were s pl it before reac hi ng confl uence w i t h 0. 05% T ry ps i n-ED TA (G i bco™, The rmo Fisher Scientific).
(§3) C ell v ia bility a ssa y
HC T-116 cells suspended in McCoy’s 5A m edium were plated in 96 -w el l pl at es (200 μ L, 2, 500 cells/well), incubated (37 °C, 5% CO2), and 24 h later treated with various concentrations of compou nds or s ol v ent cont rol (0. 25% D M SO). […] […] Cell viability w as cal cul at ed accordi ng t o t he manufact u rer’ s i ns t ruct i ons (Promeg a).
T a bl e S5. GI50 of the L argazole, L argazole Thiol and Stapled L argazole

[2] = test system: HDAC; assay: Fluorometric HDAC activity assay with HCT-116 cell lysates; type: cell-based, human; conditions: UV-irradiated premixed group of stapled largazole and DPAP, relative to control groups and non-irradiation group, Ex/Em 355/460 nm
Description: (§4) Viability Viability Viability
(§5) DPAP Toxicity DPAP+64W-15min DPAP+80W-15min
(§6) Figu r e S7. The DPAP c onc entration and UV c ondition Sc reening. a) The cytotoxicity of DPAP without UV; b) The cytotoxicity of DPAP with UV, 365 nm, 64W, 15 min; c) The cytotoxicity of DPAP with UV, 365 nm, 80W, […]
(§7) P hotoa ctiv a tion of S ta pled La r g a zole in H C T-116 cells
(§8) Plate Cells Compounds UV CellTiter Blue Detect
(§9) Sch eme S6. The phot oact ivat ion of St apled L argazole in HC T- 116 c ells.
(§10) […] […] […] Aft er a not her 48 h of i ncubat i on, t he cel l v i abil it y w as measured according to the general method a bove.
(§11) H istone D ea cety la se ( H D AC ) Activ ity Assa y ( Fluor om etr ic) Following the measurement of the cell viability, the plates were washed with cold PBS for three t i mes. […]
(§12) (also on this page, place not known: Condition Screening Figure concentration condition Screening. Photoactivation Stapled Largazole HCT-116 Scheme photoactivation Stapled Largazole HCT-116 cells. HCT-116 cells plated in 200 μL medium per well density 2,500 cells/well grown in plates. incubated oC, 5% CO2). After h, cells various (Largazole, Largazole Thiol Stapled Largazole nM, 1.5 μM) solvent control (0.25% DMSO). group irradiated with light W) min. […]
(Thermo Sci ent i fi c™). […] Aft er be i ng i ncubat ed fo r an ot her 30 mi n at R T, t he fl uores cence i nt ens i t y w as read at Ex /Em = 35 5 n m / 4 60 nm. […]

[3] = Parallel artificial membrane permeability assay (PAMPA); type: in vitro ADME; conditions: PAMPA Evolution, Pion GIT-0 phospholipid mixture, ~50 μM, ~15 h, UV read-out, average of quadruplicates
Description: […] […] The effect i v e permeability, Pe, of each compound was measured at the customer -s peci fi ed pHs i n t he dono r compart ment us i ng l ow-bi ndi ng , l ow UV P ri s ma bu ffer. […] The propri et ary s cav eng er mi mi cs s erum prot ei ns and bl ood ci rcul at i on, t hus creat i ng si nk condi t i ons .
I n t he defaul t p rot oc ol t he a queous s ol ut i ons of s t udi ed com poun ds are p repared by di l ut i ng and thoroughly mixing 3 μL of DMSO stock in 600μL of Prisma HT buffer. Final concentration of org ani c s ol v ent (D M SO) i n aqueous buf fer i s ≤ 0. 5 % (v /v ).
The PAM PA s andw i ch was assembl ed and al l owed to i ncubat e for ~15 ho urs . The s ol ut i ons i n t he don or compart ment w ere un- stirred within du ration of t he ex peri ment . Thus , t he t hi ck nes s of t he aqueous bounda ry l ay er ex pect ed t o be about 1000 μ m. […] Ket oprofen, Verapmi l and P ropan ol ol w ere us ed as […]
[…] […] Act ual pH t he bu ffers w as 7. 40 ± 0. 05.
S t o c k sol u ti ons preparation
The samples were diluted with an organic solvent (DMSO) to prepare stock s ol ut i ons at concent rat i on ~10 mM . […] 40 […]
as §1, §2, §3
HC T-116 cells suspended in McCoy’s 5A m edium were plated in 96 -w el l pl at es (200 μ L, 2, 500 […]

[4] = UV-initiated thiol-ene decaging reaction (HPLC); type: physicochemical; conditions: 1-thio-β-D-glucose tetraacetate and DPAP, UV irradiation 365 nm, 15 minutes; HPLC trace
Excerpt: Inspired by this AFCT reaction, we hypothesized that the isobutylene structure could be used as a bridging graft to cage thiol‐containing drugs and allow further controlled activation of anticancer drugs by means of a radical‐mediated thiol‐ene mechanism (Scheme 1). […] Our research began with N‐tert‐butoxycarbonyl‐L‐cysteine methyl ester (N‐Boc‐Cys‐OMe 1), which was protected with 3‐bromo‐2‐bromomethyl‐1‐propene (Table 1 and Supporting Information). The stapled cysteine 2 was then screened under a series of reaction conditions. Firstly, different PIs were tested with the same amounts of thiol source, 1‐thio‐β‐D‐glucose tetraacetate (4AcGlcSH), and 2 under irradiation at 365 nm. […] However, the other PI, 2,2‐dimethoxy‐2‐phenylacetophenone (DPAP) successfully promoted the reaction and released 1. β‐Mercaptoethanol (BME) was also tested as the thiol compound under the same reaction conditions. […] However, when N,N‐dimethylformamide (DMF) was used as solvent, two mixed disulfides resulting from the reaction between the 1‐thioglucose and N‐Boc‐cysteine methyl ester 1′ were observed. […]
The cyclic depsipeptide largazole is a marine natural product, and its derivatives are recognized as promising potential anticancer therapeutics. […] Next, the growth‐inhibitory activity was evaluated with human colon carcinoma cell lines, HCT‐116 (Figure 2 c). […]

[5] = test system: HCT-116 cells; assay: Photoactivation of stapled largazole in HCT-116 cells (cell viability); type: cell-based, human; conditions: stapled largazole 150 nM premixed with DPAP 1.5 μM, UV 365 nm, 80 W, 15 min, then 48 h, compared with non-irradiation, stapled largazole and largazole thiol groups
Description: as §4, §5, §6, §7, §8, §9, §10, §11
as §12, with “min. After another of incubation, viability was above.” for “min.”

Structure (SMILES)	GI50 ([1]; 48 h) [nM]	GI50 ([1]; HCT-116 cells, 48 h treatment, CellTiter-Blue, read-out: GI50) [nM]	HDAC activity (fluorescence) after photoactivation [2]	logPe (Avg. logPe) ([3]; donor Prisma HT buffer pH 7.4, acceptor sink buffer pH 7.4, DMSO <0.5%, unstirred)	Papp ([3]; donor Prisma HT buffer pH 7.4, acceptor sink buffer pH 7.4, DMSO <0.5%, unstirred, read-out: Pe, effective permeability (Avg. Pe)) [×10⁻⁶ cm/s]	Avg. %R, membrane retention ([3]; donor pH 7.4, by mass balance) [%]	Conversion in the decaging reaction [4]	Cell viability after photoactivation [5]
CC(C)[C@@H]1NC(=O)[C@]2(C)CSC(=N2)c2csc(n2)CNC(=O)C[C@@H](/C=C/CCS)OC1=O [largazole thiol]	185							
C=C(CSCC/C=C/[C@@H]1CC(=O)NCc2nc(cs2)C2=N[C@@](C)(CS2)C(=O)N[C@@H](C(C)C)C(=O)O1)CSCC/C=C/[C@@H]1CC(=O)NCc2nc(cs2)C2=N[C@@](C)(CS2)C(=O)N[C@@H](C(C)C)C(=O)O1 [stapled largazole]		408	significant decrease of fluorescence	−5.29	5.3	10	Full conversion	significantly lower cell viability
CCCCCCCC(=O)SCC/C=C/[C@@H]1CC(=O)NCc2nc(cs2)C2=N[C@@](C)(CS2)C(=O)N[C@@H](C(C)C)C(=O)O1 [largazole]	1.43							
